Data on one substance can be found in patent US20220275387A1, “TRANSCRIPTION FACTOR NtERF221 AND METHODS OF USING THE SAME” (University of Virginia Patent Foundation, priority 2019, published 2022).

“Also recorded” adds a separate entry of the source.

For data set [1], the system named is Nicotiana tabacum L. var. K326. Description: GC-MS quantification of nicotine in leaf of wild-type and transgenic tobacco. It counts as in vivo. The note with it: five-week-old plants, DMSO or MeJA. The protocol:
(§1) Plant materials and transformation. Tobacco plants (Nicotiana tabacum L. var. K326) were used for all the tests and genetic transformations described herein. Wild-type or transgenic seeds were germinated on Murashige and Skoog (MS) plates. For quantitative RT-PCR, germinated small seedlings were transferred onto larger MS plates and grown vertically until two weeks old before treated with 0.1% DMSO (control) or 100 μM MeJA. For TLC and GC-MS analysis, germinated seedlings were transferred in soil and grown under normal condition till five weeks old before DMSO or MeJA treatment. Agrobacterium tumefaciens strain LBA4404 harboring each transgenic vector was used for genetic transformation of tobacco following the experiment procedure described previously (Horsch et al., 1985). At least eight T0 transgenic plants were confirmed by genomic DNA PCR and then self-pollinated to produce T1 generation. […]
Gas chromatography-mass spectrometry (GC-MS). […] Nicotine concentration was measured on a Shimadzu GCMS QP2010 plus system with a protocol developed previously (Goossens et al., (2003); Zhang et al., (2012)). […]
To further quantify nicotine concentration for the comparison between transgenic lines and the wild-types, GC-MS analysis was applied with total alkaloids extracted from the leaf tissue of five-week-old wild-type or transgenic plants treated with DMSO (control) or MeJA. […]

The subject of data set [2] is Nicotiana tabacum L. var. K326. Description: TLC assay for nicotine accumulation in leaves of T2 overexpression lines. It counts as in vivo. The note with it: T2 transgenic plants, 5-week-old, constitutive or conditional overexpression. The protocol:
Plant materials and transformation. Tobacco plants (Nicotiana tabacum L. var. K326) were used for all the tests and genetic transformations described herein. Wild-type or transgenic seeds were germinated on Murashige and Skoog (MS) plates. For quantitative RT-PCR, germinated small seedlings were transferred onto larger MS plates and grown vertically until two weeks old before treated with 0.1% DMSO (control) or 100 μM MeJA. For TLC and GC-MS analysis, germinated seedlings were transferred in soil and grown under normal condition till five weeks old before DMSO or MeJA treatment. […]
Each gene was put into three different expression constructs respectively under the control of three different promoters described above (FIG. 3A). […] For each construct, at least eight lines were confirmed to have the transgene stably integrated into the genome by genomic PCR, the intact structure of the transgene was validated and relative level of transgene expression measured by RT-PCR using gene specific primers as is standard practice. The level of nicotine was assessed by TLC analysis to quickly identify the transformants with higher nicotine accumulation than the wild-type. […] T1 lines were similarly self-pollinated and the resulting T2 plants analyzed. […]

In data set [3] the test system is NtAO, NtODC, NtPMT, NtQPT, and NtQS. As to the kind of experiment: RT-qPCR of nicotine biosynthesis structural genes in transgenic tobacco seedlings. As to conditions: two-week-old seedlings, 100 μM MeJA for 8 hours, normalized to NtEF-1α. It counts as in vivo, Nicotiana tabacum. The protocol: as §1
RNA isolation and quantitative reverse transcription-PCR (RT-qPCR). […] The DNA-eliminated total RNA was then reverse-transcribed using QuantiTect reverse transcription kit (Qiagen). Quantitative PCR was conducted iTaq™ Universal SYBR® Green supermix (Bio-Rad Laboratories) on an CFX96™ Real-Time PCR detection system (Bio-Rad Laboratories). […]
(Real-time PCR tracks product formation cycle by cycle.)

Turning to “NtERF221: AP2/ERF family transcription factor transgene (CQ808982, SEQ ID NO: 1) overexpressed in tobacco K326”, the “nicotine concentration in the leaf, comparison among transgenic lines” value in data set [1] is on record as “highest nicotine concentration”. In addition, the “nicotine accumulation versus wild-type (TLC)” value in data set [2] is recorded as “significantly elevated nicotine accumulation”. The “JA-induced transcript accumulation of NtAO, NtODC, NtPMT, NtQPT, and NtQS versus wild-type” value in data set [3] was “far greater; also recorded: greatly up-regulated”.
